We go through 13 compounds from patent publication US5925645A, “2-aryl-substituted pyridines” (Bayer Aktiengesellschaft, priority 1996, dated 1999).

The nature of test [1]: Oral activity in hamsters: HDL cholesterol and triglycerides. It is filed as in vivo, Syrian golden hamsters. Here is the method:
(§1) Syrian golden hamsters from in-house breeding are anaesthetized after fasting for 24 hours (0.80 mg/kg of atropine, 0.80 mg/kg of Ketavet® s.c. 30' later 50 mg/kg of Nembutal i.p.). The jugular vein is then exposed and cannulated. The test substance is dissolved in a suitable solvent (as a rule Adalat placebo solution: 60 g of glycerol, 100 ml of H2 O, PEG-400 to 1000 ml) and administered to the animals via a PE catheter inserted into the jugular vein. The control animals receive the same volume of solvent without test substance. The vein is then tied off and the wound is closed. After various times--up to 24 hours after administration of the test substance--blood (about 250 μl) is removed from the animals by puncture of the retro-orbital venous plexus. Clotting is concluded by incubation at 4° C. overnight, then centrifugation is carried out at 6000 g for 10 minutes. In the serum thus obtained, the content of cholesterol and triglycerides is determined with the aid of modified commercially available enzyme tests (cholesterol enzymatic 14366 Merck, triglycerides 14364 Merck). Serum is suitably diluted using physiological saline solution.
100 μl of serum dilution are mixed with 100 μl of […] in 96-well plates and incubated at room temperature for 10 minutes. The optical density is then determined at a wavelength of 492 nm using an automatic plate-reading apparatus (SLT Spectra). The triglyceride/cholesterol concentration contained in the samples is determined with the aid of a standard curve measured in parallel.
The determination of the content of HDL cholesterol is carried out after precipitation of the ApoB-containing lipoproteins by means of a reagent mixture (Sigma 352-4 HDL cholesterol reagent) according to the manufacturer's instructions.
In experiments to determine the oral activity, test substance dissolved in DMSO and suspended in 0.5% Tylose is administered orally by means of stomach tube to Syrian golden hamsters from in-house breeding. The control animals receive identical volumes of solvent without test substance. […]

For test [2], the target named is T1, cholesterol ester transfer protein (CETP) (Homo sapiens, UniProt P11597).
T1 construct: CETP is obtained in partially purified form from human plasma by differential centrifugation and column chromatography; from tissue; host or cells: human plasma
T1 sequence (P11597 18-493): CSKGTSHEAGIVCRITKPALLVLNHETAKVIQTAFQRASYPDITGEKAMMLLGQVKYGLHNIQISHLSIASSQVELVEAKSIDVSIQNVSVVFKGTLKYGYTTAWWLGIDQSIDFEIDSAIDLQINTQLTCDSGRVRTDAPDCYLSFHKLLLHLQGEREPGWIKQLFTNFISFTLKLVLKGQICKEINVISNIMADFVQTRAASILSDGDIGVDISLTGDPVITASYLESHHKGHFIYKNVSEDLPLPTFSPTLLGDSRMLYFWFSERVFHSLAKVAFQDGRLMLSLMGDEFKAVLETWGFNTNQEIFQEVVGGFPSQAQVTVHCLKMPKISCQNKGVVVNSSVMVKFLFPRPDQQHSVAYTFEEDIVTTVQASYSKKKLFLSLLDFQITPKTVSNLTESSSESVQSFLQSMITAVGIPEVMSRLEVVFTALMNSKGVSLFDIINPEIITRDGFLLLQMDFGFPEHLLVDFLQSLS
The experiment in a line: CETP inhibition testing: transfer of 3H-cholesterol ester from human HD lipoproteins to biotinylated LD lipoproteins (SPA). It counts as biochemical. The following applies: 3H-CE transfer HDL to biotin-LDL, 37° C., 18 h. Here is the method:
CETP is obtained in partially purified form from human plasma by differential centrifugation and column chromatography and used for the test. To this end, human plasma is adjusted to a density of 1.21 g per ml using NaBr and centrifuged at 4° C. for 18 h at 50,000 rpm. The bottom fraction (d>1.21 g/ml) is applied to a Sephadex®phenyl-sepharose 4B (Pharmacia) column, washed with 0.15M NaCl/0.001M trisHCl pH 7.4 and then eluted with dist. water. The CETP-active fractions are pooled, dialysed against 50 mM Na acetate pH 4.5 and applied to a CM-Sepharose® (Pharmacia) column. The column is then eluted using a linear gradient (0-1M NaCl). The pooled CETP fractions are dialysed against 10 mM trisHCl pH 7.4 and then further purified by chromatography on a Mono Q® column (Pharmacia).
50 ml of fresh human EDTA plasma is adjusted to a density of 1.12 using NaBr and centrifuged for 18 h at 50,000 rpm at 4° C. in a Ty 65 rotor. The upper phase is used to obtain cold LDL. The lower phase is dialysed against 3×4 l of PDB buffer (10 mM tris/HCl pH 7.4, […], 1 mM EDTA, 0.02% NaN3). 20 μl of ^3 H-cholesterol (Dupont NET-725; 1 μC/μl dissolved in ethanol) are then added per 10 ml of retentate volume and incubation is carried out at 37° C. under N2 for 72 h.
The mixture is then adjusted to the density 1.21 using NaBr and centrifuged at 20° C. at 50,000 rpm in the Ty 65 rotor for 18 h. The upper phase is recovered and the lipoprotein fractions are purified by gradient centrifugation. To this end, the isolated, labelled lipoprotein fraction is adjusted to a density of 1.26 using NaBr. Each 4 ml of this solution are covered with a layer of 4 ml of a solution of density 1.21 and 4.5 ml of a solution of density 1.063 (density solutions of PDB buffer and NaBr) in centrifuge tubes (SW 40 rotor) and then centrifuged in the SW 40 rotor for 24 h at 38,000 rpm and 20° C. The intermediate layer containing the labelled HDL lying between the densities 1.063 and 1.21 is dialyzed against 3×100 volumes of PDB buffer at 4° C.
The retentate contains radiolabelled ^3 H-CE-HDL which, adjusted to about 5×10^6 cpm per ml, is used for the test.
For testing the CETP activity, the transfer of ^3 H-cholesterol ester from human HD lipoproteins to biotinylated LD lipoproteins is measured.
The reaction is ended by addition of streptavidin-SPA® beads (Amersham) and the transferred radioactivity is determined directly in a liquid scintillation counter.
In the test mixture, 10 μl of HDL-^3 H-cholesterol ester (~50,000 cpm) are incubated at 37° C. for 18 h with 10 μl of biotin-LDL (Amersham) in 50 mM Hepes/0.15 m NaCl/0.% bovine serum albumin/0.05% NaN3 pH 7.4 with 10 μl of CETP (1 mg/ml) and 3 μl of solution of the substance to be tested (dissolved in 10% DMSO/1% RSA). 200 μl of the SPA-streptavidin bead solution (Amersham TRKQ 7005) are then added, the mixture is incubated further for 1 h with shaking and then measured in the scintillation counter. As controls, corresponding incubations with 10 μl of buffer, 10 μl of CETP at 4° C. and 10 μl of CETP at 37° C. are used. The activity transferred into the control mixtures with CETP at 37° C. is rated as 100% transfer. The substance concentration at which this transfer is reduced by half is indicated as the IC50 value.
In the following table, the IC50 values (mol/l) are indicated for CETP inhibitors: […]

In test [3] the test system is CETP. Put plainly: Determination of the CETP activity ex vivo after intravenous administration. It is filed as in vivo, Syrian golden hamsters. As to conditions: 20 mg/kg intravenous. As for the experimental part:
as §1
Determination of the CETP activity
After intravenous administration of 20 mg/kg of the compound from Example 42, an about 50% reduction of the CETP activity measured ex vivo is found over a period of at least 2 hours. […]

Test [4] is described as follows: HDL cholesterol after intravenous administration to hamsters. It is filed as in vivo, Syrian golden hamsters. As to conditions: 20 mg/kg intravenous; 24 hours after substance administration. Here is the method: as §1, with “Clotting is concluded by incubation at 4° C. overnight, then centrifugation is carried out at 6000 g for 10 minutes.” left out, “Serum is suitably diluted using physiological saline solution.” left out
100 μl of serum dilution are mixed with 100 μl of […] in 96-well plates and incubated at room temperature for 10 minutes. The optical density is then determined at a wavelength of 492 nm using an automatic plate-reading apparatus (SLT Spectra). The triglyceride/cholesterol concentration contained in the samples is determined with the aid of a standard curve measured in parallel. […]

Setting [5] is: 2×45 mg/kg per os, 24 hours after the first administration.

`OCc1c(-c2ccc(F)cc2)nc(C2CCCC2)c(C(F)c2ccc(C(F)(F)F)cc2)c1-c1ccc(F)cc1` (single isomer, unassigned) [Example 44]: in test [1] (setting [5]), the “increase of the level of HDL cholesterol versus control group” value stood at 20% and the “lowering of the level of the triglycerides versus control group” value is recorded as 70%.

As for `CC(C)c1nc(-c2ccc(F)cc2)c(C(C)O)c(-c2ccc(F)cc2)c1C(F)c1ccc(C(F)(F)F)cc1` (stereo not drawn) [Example 3, 4,6-Bis-(p-fluorophenyl)-2-isopropyl-3-[(p-trifluoromethylphenyl)-(fluoro)methyl]5-(1-hydroxyethyl)pyridine], the IC50 in test [2] amounted to 0.8 µM.

Take `O=C(c1ccc(C(F)(F)F)cc1)c1c(C2CCCC2)nc(-c2cccc(C(F)(F)F)c2)c(CO)c1-c1ccc(F)cc1` [Example 14]: it took 0.07 µM to reach half-maximal inhibition in test [2] (IC50). The same measure, in the same setting: the value for `CC(O)c1c(-c2ccc(F)cc2)nc(C2CCCC2)c(C(=O)c2ccc(C(F)(F)F)cc2)c1-c1ccc(F)cc1` (stereo not drawn) [Example 26] was 0.9 µM; that for `CC(C)c1nc(-c2ccc(F)cc2)c(CO)c(-c2ccc(F)cc2)c1C(F)c1ccc(C(F)(F)F)cc1` (stereo not drawn) [Example 31, 2-,4-di-(4-Fluorophenyl)-6-isopropyl-5-[4-(trifluoromethylphenyl)-fluoromethyl]-3-hydroxymethyl-pyridine] was 0.5 µM; that for `OCc1c(-c2ccc(Cl)cc2)nc(C2CCCC2)c(C(F)c2ccc(C(F)(F)F)cc2)c1-c1ccc(F)cc1` (stereo not drawn) [Example 37] was 0.3 µM. `OCc1c(-c2ccc(F)cc2)nc(C2CCCC2)c(C(F)c2ccc(C(F)(F)F)cc2)c1-c1ccc(F)cc1` (stereo not drawn) [Example 42] displayed an IC50 in test [2] of 0.09 to 0.17 µM. Moreover, the “period over which the about 50% reduction of CETP activity is found” value in test [3] (ex vivo) is given as “at least 2 hours”. The “reduction of the CETP activity measured ex vivo” value in test [3] (over a period of at least 2 hours) is “about 50%”. In addition, the “increase of HDL cholesterol values versus control group” value in test [4] is “about 30%”. In test [1] (100 mg/kg per os, 24 hours after administration), the “increase of HDL cholesterol levels” value is reported as 30%. `OCc1c(-c2ccc(F)cc2)nc(C2CCCC2)c(C(F)c2ccc(OC(F)(F)F)cc2)c1-c1ccc(F)cc1` (stereo not drawn) [Example 45]: the half-maximal inhibitory concentration (IC50) in test [2] came to 0.3 µM. On the same count and under the same terms, the value for `OCc1c(-c2ccc(F)cc2)nc(C2CCCCC2)c(C(F)c2ccc(C(F)(F)F)cc2)c1-c1ccc(F)cc1` (stereo not drawn) [Example 51] was 0.4 µM; that for `OCc1c(-c2ccc(F)cc2)nc(C2CCCCCC2)c(C(F)c2ccc(C(F)(F)F)cc2)c1-c1ccc(F)cc1` (stereo not drawn) [Example 53] was 0.17 µM; that for `CC(C)c1nc(-c2ccc(F)cc2)c(CO)c(-c2cccc(Cl)c2)c1Cc1ccc(C(F)(F)F)cc1` [Example 63] was 1 µM. Turning to `OCc1c(-c2ccc(F)cc2)nc(C2CCCC2)c(C(F)c2ccc3ccccc3c2)c1-c1ccc(F)cc1` (stereo not drawn) [Example 68], half-maximal inhibition in test [2] (IC50) was put at 0.08 µM. In test [2], `CC(C)c1nc(-c2ccc(F)cc2)c(CO)c(-c2ccc(F)cc2)c1C=Cc1cccc(C(F)(F)F)c1` [Example 83, 2,4-di-(4-Fluorophenyl)-6-isopropyl-5-[2-(3-trifluoromethylphenyl)vinyl]-3-hydroxymethyl-pyridine] gave an IC50 of 5 µM.
